According to the supplement of paper PMC9262897, “Low-cost anti-mycobacterial drug discovery using engineered E. coli” (Nature Communications, 2022):

System: E. coli TESEC Mtb Alr
Experiment: growth (OD600 after 10 h, mean); higher = more growth
Experimental: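 TESEC Mtb Alr E. coli grown in a two-dimensional dilution series of drug (µM) and arabinose (12 to 1e8 nM). Growth is read as OD600 after 10 h; values are means of 3 biological replicates.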
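Note: E. coli lacking its native Alr, complemented by codon-optimized Mtb Alr under a feedback-controlled arabinose-inducible plasmid circuit, grown in defined medium.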

Structure (SMILES): CCOC(=O)[C@H](CCc1ccccc1)N[C@H]1CCc2ccccc2N(CC(=O)O)C1=O [Benazepril]
- growth (drug 31.25 µM, arabinose 381 nM): 0.325
- growth (drug 31.25 µM, arabinose 763 nM): 0.322
- growth (drug 31.25 µM, arabinose 1526 nM): 0.322
- growth (drug 31.25 µM, arabinose 3052 nM): 0.326
- growth (drug 31.25 µM, arabinose 6104 nM): 0.334
- growth (drug 31.25 µM, arabinose 12207 nM): 0.332
- growth (drug 31.25 µM, arabinose 24414 nM): 0.348
- growth (drug 31.25 µM, arabinose 48828 nM): 0.393
- growth (drug 31.25 µM, arabinose 97656 nM): 0.462
- growth (drug 31.25 µM, arabinose 195312 nM): 0.42
- growth (drug 31.25 µM, arabinose 390625 nM): 0.35
- growth (drug 31.25 µM, arabinose 781250 nM): 0.307
- growth (drug 31.25 µM, arabinose 1562500 nM): 0.287
- growth (drug 31.25 µM, arabinose 3125000 nM): 0.267
- growth (drug 31.25 µM, arabinose 6250000 nM): 0.273
- growth (drug 31.25 µM, arabinose 12500000 nM): 0.266
- growth (drug 31.25 µM, arabinose 25000000 nM): 0.258
- growth (drug 31.25 µM, arabinose 50000000 nM): 0.245
- growth (drug 31.25 µM, arabinose 100000000 nM): 0.231
- growth (drug 62.5 µM, arabinose 12 nM): 0.321
- growth (drug 62.5 µM, arabinose 24 nM): 0.326
- growth (drug 62.5 µM, arabinose 48 nM): 0.33
- growth (drug 62.5 µM, arabinose 95 nM): 0.309
- growth (drug 62.5 µM, arabinose 191 nM): 0.308
- growth (drug 62.5 µM, arabinose 381 nM): 0.309
- growth (drug 62.5 µM, arabinose 763 nM): 0.304
- growth (drug 62.5 µM, arabinose 1526 nM): 0.305
- growth (drug 62.5 µM, arabinose 3052 nM): 0.308
- growth (drug 62.5 µM, arabinose 6104 nM): 0.303
- growth (drug 62.5 µM, arabinose 12207 nM): 0.312
- growth (drug 62.5 µM, arabinose 24414 nM): 0.309
- growth (drug 62.5 µM, arabinose 48828 nM): 0.396
- growth (drug 62.5 µM, arabinose 97656 nM): 0.394
- growth (drug 62.5 µM, arabinose 195312 nM): 0.387
- growth (drug 62.5 µM, arabinose 390625 nM): 0.346
- growth (drug 62.5 µM, arabinose 781250 nM): 0.306
- growth (drug 62.5 µM, arabinose 1562500 nM): 0.286
- growth (drug 62.5 µM, arabinose 3125000 nM): 0.268
- growth (drug 62.5 µM, arabinose 6250000 nM): 0.273
- growth (drug 62.5 µM, arabinose 12500000 nM): 0.256
- growth (drug 62.5 µM, arabinose 25000000 nM): 0.252
- growth (drug 62.5 µM, arabinose 50000000 nM): 0.244
- growth (drug 62.5 µM, arabinose 100000000 nM): 0.23
- growth (drug 125 µM, arabinose 12 nM): 0.279
- growth (drug 125 µM, arabinose 24 nM): 0.285
- growth (drug 125 µM, arabinose 48 nM): 0.275
- growth (drug 125 µM, arabinose 95 nM): 0.279
- growth (drug 125 µM, arabinose 191 nM): 0.275
- growth (drug 125 µM, arabinose 381 nM): 0.274
- growth (drug 125 µM, arabinose 763 nM): 0.278
- growth (drug 125 µM, arabinose 1526 nM): 0.275
- growth (drug 125 µM, arabinose 3052 nM): 0.279
- growth (drug 125 µM, arabinose 6104 nM): 0.277
- growth (drug 125 µM, arabinose 12207 nM): 0.288
- growth (drug 125 µM, arabinose 24414 nM): 0.297
- growth (drug 125 µM, arabinose 48828 nM): 0.359
- growth (drug 125 µM, arabinose 97656 nM): 0.376
- growth (drug 125 µM, arabinose 195312 nM): 0.327
- growth (drug 125 µM, arabinose 390625 nM): 0.289
- growth (drug 125 µM, arabinose 781250 nM): 0.281
- growth (drug 125 µM, arabinose 1562500 nM): 0.269
- growth (drug 125 µM, arabinose 3125000 nM): 0.255
- growth (drug 125 µM, arabinose 6250000 nM): 0.256
- growth (drug 125 µM, arabinose 12500000 nM): 0.256
- growth (drug 125 µM, arabinose 25000000 nM): 0.244
- growth (drug 125 µM, arabinose 50000000 nM): 0.243
- growth (drug 125 µM, arabinose 100000000 nM): 0.227
- growth (drug 250 µM, arabinose 1526 nM): 0.185
- growth (drug 250 µM, arabinose 3052 nM): 0.183
- growth (drug 250 µM, arabinose 6104 nM): 0.187
- growth (drug 250 µM, arabinose 12207 nM): 0.186
